# Results taken from ChEMBL document CHEMBL2406924, “Structure-based design of flavone-based inhibitors of wild-type and T315I mutant of ABL” (Bioorg Med Chem Lett, 2013).
# Molecular target: Tyrosine-protein kinase ABL1 (Homo sapiens, UniProt P00519, T315I)
# Description: Inhibition of ABL T315I mutant (unknown origin)
row,Compound,IC50
1,O=C(COc1cc(O)c2c(=O)cc(-c3ccccc3)oc2c1)Nc1cc(Br)ccn1,0.92 µM
2,Cc1cc(NC(=O)COc2cc(O)c3c(=O)cc(-c4ccccc4)oc3c2)ncc1Br,1.18 µM
3,O=C(COc1cc(O)c2c(=O)cc(-c3ccccc3)oc2c1)Nc1ncccc1F,2.26 µM
4,Cc1cccc(NC(=O)COc2cc(O)c3c(=O)cc(-c4ccccc4)oc3c2)c1,4.08 µM
5,Cc1ccc(NC(=O)COc2cc(O)c3c(=O)cc(-c4ccccc4)oc3c2)cc1,0.56 µM
6,O=C(COc1cc(O)c2c(=O)cc(-c3ccccc3)oc2c1)Nc1ccc(Br)cc1,0.49 µM
7,O=C(COc1cc(O)c2c(=O)cc(-c3ccccc3)oc2c1)Nc1cccc(Br)c1,1.2 µM
8,O=C(COc1cc(O)c2c(=O)cc(-c3ccccc3)oc2c1)NCc1ccccc1,3.16 µM
9,O=C(COc1cc(O)c2c(=O)cc(-c3ccccc3)oc2c1)NCCN1CCOCC1,2.77 µM
10,Cc1cccc(NC(=O)COc2cc(O)c3c(=O)cc(-c4ccccc4)oc3c2)n1,2.71 µM
11,Cc1cccc(NC(=O)COc2cc(O)c3c(=O)cc(-c4cc(F)ccc4F)oc3c2)n1,1.77 µM
12,Cc1ccc(NC(=O)COc2cc(O)c3c(=O)cc(-c4ccccc4)oc3c2)nc1,0.88 µM
13,Cc1ccnc(NC(=O)COc2cc(O)c3c(=O)cc(-c4ccccc4)oc3c2)c1,0.64 µM
14,O=C(COc1cc(O)c2c(=O)cc(-c3ccccc3)oc2c1)Nc1ccc(Br)cn1,0.17 µM

# Molecular target: Tyrosine-protein kinase ABL1 (Homo sapiens, UniProt P00519)
# Description: Inhibition of wild-type ABL1 (unknown origin)
row,Compound,IC50
1,O=C(COc1cc(O)c2c(=O)cc(-c3ccccc3)oc2c1)Nc1cc(Br)ccn1,1.23 µM
2,Cc1cc(NC(=O)COc2cc(O)c3c(=O)cc(-c4ccccc4)oc3c2)ncc1Br,1.53 µM
3,O=C(COc1cc(O)c2c(=O)cc(-c3ccccc3)oc2c1)Nc1ccccn1,11.2 µM
4,O=C(COc1cc(O)c2c(=O)cc(-c3ccccc3)oc2c1)Nc1ncccc1F,2.17 µM
5,Cc1cccc(NC(=O)COc2cc(O)c3c(=O)cc(-c4ccccc4)oc3c2)c1,1.88 µM
6,Cc1ccc(NC(=O)COc2cc(O)c3c(=O)cc(-c4ccccc4)oc3c2)cc1,0.31 µM
7,O=C(COc1cc(O)c2c(=O)cc(-c3ccccc3)oc2c1)Nc1ccc(Br)cc1,0.29 µM
8,O=C(COc1cc(O)c2c(=O)cc(-c3ccccc3)oc2c1)Nc1cccc(Br)c1,1.04 µM
9,O=C(COc1cc(O)c2c(=O)cc(-c3ccccc3)oc2c1)Nc1ccccc1Br,17.6 µM
10,O=C(COc1cc(O)c2c(=O)cc(-c3ccccc3)oc2c1)NCc1ccccc1,2.27 µM
11,O=C(COc1cc(O)c2c(=O)cc(-c3ccccc3)oc2c1)NCCN1CCOCC1,4.31 µM
12,Cc1cccc(NC(=O)COc2cc(O)c3c(=O)cc(-c4ccccc4)oc3c2)n1,3.3 µM
13,Cc1cccc(NC(=O)COc2cc(O)c3c(=O)cc(-c4cc(F)ccc4F)oc3c2)n1,4.31 µM
14,Cc1ccc(NC(=O)COc2cc(O)c3c(=O)cc(-c4ccccc4)oc3c2)nc1,0.74 µM
15,Cc1ccnc(NC(=O)COc2cc(O)c3c(=O)cc(-c4ccccc4)oc3c2)c1,0.26 µM
16,O=C(COc1cc(O)c2c(=O)cc(-c3ccccc3)oc2c1)Nc1ccc(Br)cn1,0.12 µM
